Tests used:
Assay in all cases: relative viability (nuclei count vs DMSO), 5 days (fraction); higher = more cells survive
Linsitinib + Tozasertib = compound: C[C@]1(O)C[C@@H](c2nc(-c3ccc4ccc(-c5ccccc5)nc4c3)c3c(N)nccn32)C1 [Linsitinib] + Cc1cc(Nc2cc(N3CCN(C)CC3)nc(Sc3ccc(NC(=O)C4CC4)cc3)n2)n[nH]1 [Tozasertib] (partner 0.1 µM)
How it was run: (§1)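 Nuclei were stained with Hoechst during a one-step fixation (final 0.05% Triton X-100, 1% formaldehyde, 1 ug/ml Hoechst) carried out 5 days after dosing, then counted on 4× images. The cells, lung cancer lines in 1536-well plates, had been dosed by pin tool the day after seeding with one drug alone or a fixed anchor-drug dose plus five library-drug doses (not always all listed) in √10 steps. Relative viability is the nuclei count in treated wells divided by that in vehicle wells, and each value is the median of duplicate plates.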

Linsitinib + Olaparib = compound: C[C@]1(O)C[C@@H](c2nc(-c3ccc4ccc(-c5ccccc5)nc4c3)c3c(N)nccn32)C1 [Linsitinib] + O=C(c1cc(Cc2n[nH]c(=O)c3ccccc23)ccc1F)N1CCN(C(=O)C2CC2)CC1 [Olaparib] (partner 8 µM)
How it was run: as §1

Ispinesib + Luminespib = compound: Cc1ccc(C(=O)N(CCCN)[C@@H](c2nc3cc(Cl)ccc3c(=O)n2Cc2ccccc2)C(C)C)cc1 [Ispinesib] + CCNC(=O)c1noc(-c2cc(C(C)C)c(O)cc2O)c1-c1ccc(CN2CCOCC2)cc1 [Luminespib] (partner 0.01 µM)
How it was run: as §1

Ispinesib + Dasatinib = compound: Cc1ccc(C(=O)N(CCCN)[C@@H](c2nc3cc(Cl)ccc3c(=O)n2Cc2ccccc2)C(C)C)cc1 [Ispinesib] + Cc1nc(Nc2ncc(C(=O)Nc3c(C)cccc3Cl)s2)cc(N2CCN(CCO)CC2)n1 [Dasatinib] (partner 0.075 µM)
How it was run: as §1

NCI-H838
relative viability (Linsitinib + Tozasertib; first compound 0.01 µM): 0.277 | relative viability (Linsitinib + Tozasertib; first compound 0.03162 µM): 0.209 | relative viability (Linsitinib + Tozasertib; first compound 0.1 µM): 0.295 | relative viability (Linsitinib + Tozasertib; first compound 1 µM): 0.221 | relative viability (Linsitinib + Olaparib; first compound 0.01 µM): 0.754 | relative viability (Linsitinib + Olaparib; first compound 0.03162 µM): 0.722 | relative viability (Linsitinib + Olaparib; first compound 0.1 µM): 0.73 | relative viability (Linsitinib + Olaparib; first compound 0.3162 µM): 0.482 | relative viability (Linsitinib + Olaparib; first compound 1 µM): 0.533 | relative viability (Ispinesib + Luminespib; first compound 0.001 µM): 0.302 | relative viability (Ispinesib + Luminespib; first compound 0.003162 µM): 0.325 | relative viability (Ispinesib + Luminespib; first compound 0.01 µM): 0.278 | relative viability (Ispinesib + Luminespib; first compound 0.03162 µM): 0.322 | relative viability (Ispinesib + Luminespib; first compound 0.1 µM): 0.268 | relative viability (Ispinesib + Dasatinib; first compound 0.001 µM): 0.325 | relative viability (Ispinesib + Dasatinib; first compound 0.003162 µM): 0.335 | relative viability (Ispinesib + Dasatinib; first compound 0.01 µM): 0.29 | relative viability (Ispinesib + Dasatinib; first compound 0.03162 µM): 0.242 | relative viability (Ispinesib + Dasatinib; first compound 0.1 µM): 0.182

PC-14
relative viability (Linsitinib + Tozasertib; first compound 0.01 µM): 0.559 | relative viability (Linsitinib + Tozasertib; first compound 0.03162 µM): 0.542 | relative viability (Linsitinib + Tozasertib; first compound 0.1 µM): 0.578 | relative viability (Linsitinib + Tozasertib; first compound 0.3162 µM): 0.486 | relative viability (Linsitinib + Tozasertib; first compound 1 µM): 0.427 | relative viability (Linsitinib + Olaparib; first compound 0.01 µM): 0.26 | relative viability (Linsitinib + Olaparib; first compound 0.03162 µM): 0.177 | relative viability (Linsitinib + Olaparib; first compound 0.1 µM): 0.303 | relative viability (Linsitinib + Olaparib; first compound 0.3162 µM): 0.233 | relative viability (Linsitinib + Olaparib; first compound 1 µM): 0.263 | relative viability (Ispinesib + Luminespib; first compound 0.001 µM): 0.168 | relative viability (Ispinesib + Luminespib; first compound 0.003162 µM): 0.13 | relative viability (Ispinesib + Luminespib; first compound 0.01 µM): 0.131 | relative viability (Ispinesib + Luminespib; first compound 0.03162 µM): 0.131 | relative viability (Ispinesib + Luminespib; first compound 0.1 µM): 0.125 | relative viability (Ispinesib + Dasatinib; first compound 0.001 µM): 0.221 | relative viability (Ispinesib + Dasatinib; first compound 0.003162 µM): 0.188 | relative viability (Ispinesib + Dasatinib; first compound 0.01 µM): 0.0739 | relative viability (Ispinesib + Dasatinib; first compound 0.03162 µM): 0.0649 | relative viability (Ispinesib + Dasatinib; first compound 0.1 µM): 0.133

NCI-H358
relative viability (Linsitinib + Tozasertib; first compound 0.01 µM): 0.0907 | relative viability (Linsitinib + Tozasertib; first compound 0.03162 µM): 0.0851 | relative viability (Linsitinib + Tozasertib; first compound 0.1 µM): 0.114 | relative viability (Linsitinib + Tozasertib; first compound 0.3162 µM): 0.0862 | relative viability (Linsitinib + Tozasertib; first compound 1 µM): 0.0939 | relative viability (Linsitinib + Olaparib; first compound 0.01 µM): 0.585 | relative viability (Linsitinib + Olaparib; first compound 0.03162 µM): 0.64 | relative viability (Linsitinib + Olaparib; first compound 0.1 µM): 0.602 | relative viability (Linsitinib + Olaparib; first compound 0.3162 µM): 0.47 | relative viability (Linsitinib + Olaparib; first compound 1 µM): 0.333 | relative viability (Ispinesib + Luminespib; first compound 0.001 µM): 0.424 | relative viability (Ispinesib + Luminespib; first compound 0.003162 µM): 0.435 | relative viability (Ispinesib + Luminespib; first compound 0.01 µM): 0.549 | relative viability (Ispinesib + Luminespib; first compound 0.03162 µM): 0.405 | relative viability (Ispinesib + Luminespib; first compound 0.1 µM): 0.259 | relative viability (Ispinesib + Dasatinib; first compound 0.001 µM): 0.162 | relative viability (Ispinesib + Dasatinib; first compound 0.003162 µM): 0.144 | relative viability (Ispinesib + Dasatinib; first compound 0.01 µM): 0.163 | relative viability (Ispinesib + Dasatinib; first compound 0.03162 µM): 0.131 | relative viability (Ispinesib + Dasatinib; first compound 0.1 µM): 0.0677

NCI-H1915
relative viability (Linsitinib + Tozasertib; first compound 0.01 µM): 0.44 | relative viability (Linsitinib + Tozasertib; first compound 0.03162 µM): 0.477 | relative viability (Linsitinib + Tozasertib; first compound 0.1 µM): 0.437 | relative viability (Linsitinib + Tozasertib; first compound 0.3162 µM): 0.378 | relative viability (Linsitinib + Tozasertib; first compound 1 µM): 0.353 | relative viability (Linsitinib + Olaparib; first compound 0.01 µM): 0.238 | relative viability (Linsitinib + Olaparib; first compound 0.03162 µM): 0.221 | relative viability (Linsitinib + Olaparib; first compound 0.1 µM): 0.243 | relative viability (Linsitinib + Olaparib; first compound 0.3162 µM): 0.225 | relative viability (Linsitinib + Olaparib; first compound 1 µM): 0.237 | relative viability (Ispinesib + Luminespib; first compound 0.001 µM): 0.979 | relative viability (Ispinesib + Luminespib; first compound 0.003162 µM): 0.987 | relative viability (Ispinesib + Luminespib; first compound 0.01 µM): 1.13 | relative viability (Ispinesib + Luminespib; first compound 0.03162 µM): 0.706 | relative viability (Ispinesib + Luminespib; first compound 0.1 µM): 0.385 | relative viability (Ispinesib + Dasatinib; first compound 0.001 µM): 0.304 | relative viability (Ispinesib + Dasatinib; first compound 0.003162 µM): 0.312 | relative viability (Ispinesib + Dasatinib; first compound 0.01 µM): 0.38 | relative viability (Ispinesib + Dasatinib; first compound 0.03162 µM): 0.25 | relative viability (Ispinesib + Dasatinib; first compound 0.1 µM): 0.137

201T
relative viability (Linsitinib + Tozasertib; first compound 0.01 µM): 0.951 | relative viability (Linsitinib + Tozasertib; first compound 0.03162 µM): 0.929 | relative viability (Linsitinib + Tozasertib; first compound 0.1 µM): 0.988 | relative viability (Linsitinib + Tozasertib; first compound 0.3162 µM): 0.977 | relative viability (Linsitinib + Tozasertib; first compound 1 µM): 0.938 | relative viability (Linsitinib + Olaparib; first compound 0.01 µM): 0.874 | relative viability (Linsitinib + Olaparib; first compound 0.03162 µM): 0.61 | relative viability (Linsitinib + Olaparib; first compound 0.1 µM): 0.84 | relative viability (Linsitinib + Olaparib; first compound 0.3162 µM): 0.676 | relative viability (Linsitinib + Olaparib; first compound 1 µM): 0.862 | relative viability (Ispinesib + Luminespib; first compound 0.001 µM): 1.07 | relative viability (Ispinesib + Luminespib; first compound 0.003162 µM): 1.05 | relative viability (Ispinesib + Luminespib; first compound 0.01 µM): 1.15 | relative viability (Ispinesib + Luminespib; first compound 0.03162 µM): 0.988 | relative viability (Ispinesib + Luminespib; first compound 0.1 µM): 0.937 | relative viability (Ispinesib + Dasatinib; first compound 0.001 µM): 0.538 | relative viability (Ispinesib + Dasatinib; first compound 0.003162 µM): 0.599 | relative viability (Ispinesib + Dasatinib; first compound 0.01 µM): 0.735 | relative viability (Ispinesib + Dasatinib; first compound 0.03162 µM): 0.56 | relative viability (Ispinesib + Dasatinib; first compound 0.1 µM): 0.307

NCI-H1437
relative viability (Linsitinib + Tozasertib; first compound 0.01 µM): 0.388 | relative viability (Linsitinib + Tozasertib; first compound 0.03162 µM): 0.352 | relative viability (Linsitinib + Tozasertib; first compound 0.1 µM): 0.444 | relative viability (Linsitinib + Tozasertib; first compound 0.3162 µM): 0.333 | relative viability (Linsitinib + Tozasertib; first compound 1 µM): 0.451 | relative viability (Linsitinib + Olaparib; first compound 0.01 µM): 0.636 | relative viability (Linsitinib + Olaparib; first compound 0.03162 µM): 0.632 | relative viability (Linsitinib + Olaparib; first compound 0.1 µM): 0.667 | relative viability (Linsitinib + Olaparib; first compound 0.3162 µM): 0.636 | relative viability (Linsitinib + Olaparib; first compound 1 µM): 0.584 | relative viability (Ispinesib + Luminespib; first compound 0.001 µM): 1.16 | relative viability (Ispinesib + Luminespib; first compound 0.003162 µM): 1.22 | relative viability (Ispinesib + Luminespib; first compound 0.01 µM): 1.26 | relative viability (Ispinesib + Luminespib; first compound 0.03162 µM): 1.22 | relative viability (Ispinesib + Luminespib; first compound 0.1 µM): 0.994 | relative viability (Ispinesib + Dasatinib; first compound 0.001 µM): 0.45 | relative viability (Ispinesib + Dasatinib; first compound 0.003162 µM): 0.512 | relative viability (Ispinesib + Dasatinib; first compound 0.01 µM): 0.395 | relative viability (Ispinesib + Dasatinib; first compound 0.03162 µM): 0.35 | relative viability (Ispinesib + Dasatinib; first compound 0.1 µM): 0.166

A-427
relative viability (Linsitinib + Tozasertib; first compound 0.01 µM): 0.211 | relative viability (Linsitinib + Tozasertib; first compound 0.03162 µM): 0.222 | relative viability (Linsitinib + Tozasertib; first compound 0.1 µM): 0.234 | relative viability (Linsitinib + Tozasertib; first compound 1 µM): 0.177 | relative viability (Linsitinib + Olaparib; first compound 0.01 µM): 0.71 | relative viability (Linsitinib + Olaparib; first compound 0.03162 µM): 0.73 | relative viability (Linsitinib + Olaparib; first compound 0.1 µM): 0.75 | relative viability (Linsitinib + Olaparib; first compound 1 µM): 0.584 | relative viability (Ispinesib + Luminespib; first compound 0.001 µM): 1 | relative viability (Ispinesib + Luminespib; first compound 0.003162 µM): 1.11 | relative viability (Ispinesib + Luminespib; first compound 0.01 µM): 1.33 | relative viability (Ispinesib + Luminespib; first compound 0.03162 µM): 0.352 | relative viability (Ispinesib + Luminespib; first compound 0.1 µM): 0.389 | relative viability (Ispinesib + Dasatinib; first compound 0.001 µM): 0.668 | relative viability (Ispinesib + Dasatinib; first compound 0.003162 µM): 0.793 | relative viability (Ispinesib + Dasatinib; first compound 0.01 µM): 0.817 | relative viability (Ispinesib + Dasatinib; first compound 0.03162 µM): 0.396 | relative viability (Ispinesib + Dasatinib; first compound 0.1 µM): 0.161

— the supplement of paper PMC10307832
